According to US10550142B2, “Quercetin-based compound” (AMOREPACIFIC CORPORATION, priority 2016, dated 2020):

Molecular target: T1, β-amyloid (Aβ1-42) (Homo sapiens, UniProt P05067)
T1 construct: β-amyloid (Aβ1-42, AnaSpec Inc, USA) was obtained; purchased AnaSpec Inc, USA
Assay: Beta-amyloid aggregation inhibition, fluorescence analysis (Thioflavin T assay)
Type: biochemical
Settings: compound 10 μM; for Increased RFU (% of Pos.Cont.): aggregated β-amyloid compared to the positive control (no compound) = 100; for decreased aggregation compared with the positive control: positive control taken as 100%
Experimental: The beta-amyloid aggregation inhibitory effect of quercetin 3-O-[3-O″-(E)-p-coumaroyl][β-D-glucopyranosyl-(1→3)-O-α-L-rhamnopyranosyl-(1→6)-O-β-D-glucopyranoside] and quercetin 3-O-[3-O″-(E)-p-coumaroyl][α-L-rhamnopyranosyl-(1→6)-O-β-D-glucopyranoside] was determined by fluorescence analysis (Thioflavin T assay). Specifically, β-amyloid (Aβ1-42, AnaSpec Inc, USA) was obtained and used at a concentration of 0.1 mg/ml. It was stored at −80° C. prior to use. Each of morin (20 μM), phenol red (20 μM), quercetin 3-O-[3-O″-(E)-p-coumaroyl][β-D-glucopyranosyl-(1→3)-O-α-L-rhamnopyranosyl-(1→6)-O-β-D-glucopyranoside] (1 mg/ml), and quercetin 3-O-[3-O″-(E)-p-coumaroyl][α-L-rhamnopyranosyl-(1→6)-O-β-D-glucopyranoside] (1 mg/ml) was diluted to these concentrations in DMSO. In order to determine the degree of inhibition of Aβ1-42 aggregation, each compound at the above concentration was diluted to 10 μM in 50 μL of 0.01 M sodium phosphate buffer solution. Then, 40 μL of 0.1 mg/ml Aβ1-42 was added thereto, followed by addition of 10 μL of 2 mM Thioflavin T. The fluorescence was then measured with a fluorescence spectrometer (RF-5300PC, SHIMADZU CORPORATION, Japan) at 37° C. and intervals of 5 minutes for 150 minutes. In the table above, “RFU” denotes relative fluorescence unit, and “increased RFU” indicates the amount of aggregated β-amyloid. “Increased RFU (% of Pos.Cont.)” indicates the percentage of aggregated β-amyloid compared to the positive control. “Novel substance 31” indicates quercetin 3-O-[3-O″-(E)-p-coumaroyl][β-D-glucopyranosyl-(1→3)-O-α-L-rhamnopyranosyl-(1→6)-O-β-D-glucopyranoside], and “novel substance 32” indicates quercetin 3-O-[3-O″-(E)-p-coumaroyl][α-L-rhamnopyranosyl-(1→6)-O-β-D-glucopyranoside].

T1 sequence (P05067 672-713 limits assumed): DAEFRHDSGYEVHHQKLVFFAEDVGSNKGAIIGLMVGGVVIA

SMILES	Increased RFU (amount of aggregated β-amyloid) (Aβ1-42 0.1 mg/ml, 37° C., 150 minutes) [RFU]	Increased RFU (% of Pos.Cont.) [%]	decreased aggregation compared with the positive control [%]
O=c1c(O)c(-c2ccc(O)cc2O)oc2cc(O)cc(O)c12 [Morin, morin, reference compound]	11471	78.6	21.4
O=S1(=O)OC(c2ccc(O)cc2)(c2ccc(O)cc2)c2ccccc21 [Phenol Red, phenol red, reference compound]	–	93.6	6.4
